# pIC50: −log10 of the molar value.
# Target: T1, human TRPA1 (Homo sapiens, UniProt O75762)
# T1 construct: expressed in transfected cells; host or cells: CHO cells
# Assay: TRPA1 FLIPR Tetra calcium influx assay in CHO cells (block of cinnamaldehyde-induced calcium influx)
# Assay type: cell-based
# Details: Table 2; CHO cells expressing TRPA1; agonist cinnamaldehyde 75 uM; 20 min compound incubation; Hill coefficient fixed to 1.5; read-out: hTRPA1 CHO Ca2+ AUC EVO (IC50)
# Outline: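 IC50s were derived from a Hill fit with n fixed at 1.5, using inhibition of FLIPR Tetra calcium signals in dye-loaded TRPA1-CHO cells. Cells sat with compound 20 min at room temperature in HBSS with 20 mM HEPES (pH 7.4) and 0.02% BSA, then were challenged with cinnamaldehyde near EC80: 75 µM human, 45 µM rat.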
# T1 sequence (O75762 whole entry): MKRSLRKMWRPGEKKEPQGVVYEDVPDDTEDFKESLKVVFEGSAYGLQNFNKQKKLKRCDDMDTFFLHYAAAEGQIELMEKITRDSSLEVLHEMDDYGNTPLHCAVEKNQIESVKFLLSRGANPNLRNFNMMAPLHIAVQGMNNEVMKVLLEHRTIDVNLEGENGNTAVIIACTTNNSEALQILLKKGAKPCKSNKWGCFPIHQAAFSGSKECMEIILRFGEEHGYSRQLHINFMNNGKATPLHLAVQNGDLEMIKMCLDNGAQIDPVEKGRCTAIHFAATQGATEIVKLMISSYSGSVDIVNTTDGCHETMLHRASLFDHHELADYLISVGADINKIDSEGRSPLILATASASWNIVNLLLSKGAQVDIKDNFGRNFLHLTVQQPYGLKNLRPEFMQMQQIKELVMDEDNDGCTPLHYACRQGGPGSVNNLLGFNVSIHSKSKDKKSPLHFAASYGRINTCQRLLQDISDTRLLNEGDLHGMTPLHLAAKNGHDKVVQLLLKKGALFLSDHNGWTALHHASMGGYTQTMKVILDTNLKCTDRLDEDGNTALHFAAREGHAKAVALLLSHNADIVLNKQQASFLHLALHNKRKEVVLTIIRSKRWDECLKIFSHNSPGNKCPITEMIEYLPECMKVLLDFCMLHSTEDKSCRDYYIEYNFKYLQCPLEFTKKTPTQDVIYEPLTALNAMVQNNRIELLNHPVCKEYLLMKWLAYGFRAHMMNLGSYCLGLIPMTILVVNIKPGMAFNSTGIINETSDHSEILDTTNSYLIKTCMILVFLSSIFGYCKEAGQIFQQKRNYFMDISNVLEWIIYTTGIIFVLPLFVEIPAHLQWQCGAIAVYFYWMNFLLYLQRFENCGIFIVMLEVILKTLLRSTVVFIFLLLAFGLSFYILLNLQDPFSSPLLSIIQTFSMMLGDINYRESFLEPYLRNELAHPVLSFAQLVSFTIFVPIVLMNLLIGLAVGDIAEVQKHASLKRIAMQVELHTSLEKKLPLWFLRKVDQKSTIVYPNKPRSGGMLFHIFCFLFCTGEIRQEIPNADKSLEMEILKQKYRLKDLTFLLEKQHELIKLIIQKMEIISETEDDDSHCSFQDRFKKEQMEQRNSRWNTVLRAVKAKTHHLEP
row,SMILES,pIC50
1,"C[C@H]1[C@H](F)C[C@@H](C(=O)NCc2cc(-c3cnc(C(F)(F)F)nc3)ncc2F)N1S(=O)(=O)c1cc2cc(F)ccc2s1 [Example 99, (2S,4R,5S)-4-fluoro-1-(5-fluorobenzothiophen-2-yl)sulfonyl-N-[[5-fluoro-2-[2-(trifluoromethyl)pyrimidin-5-yl]-4-pyridyl]methyl]-5-methyl-pyrrolidine-2-carboxamide]",8.01
2,"Cc1cnc(-c2cnc(C(F)(F)F)nc2)cc1CNC(=O)[C@@H]1C[C@@H](F)[C@H](C)N1S(=O)(=O)c1ccc(F)cc1 [Example 100, (2S,4R,5S)-4-fluoro-1-((4-fluorophenyl)sulfonyl)-5-methyl-N-((5-methyl-2-(2-(trifluoromethyl)pyrimidin-5-yl)pyridin-4-yl)methyl)pyrrolidine-2-carboxamide]",7.90
3,"C[C@H]1[C@H](F)C[C@@H](C(=O)NCc2cc(-c3cnc(C(F)(F)F)nc3)ncc2F)N1S(=O)(=O)c1ccc(Cl)s1 [Example 101, (2S,4R,5S)-1-[(5-chloro-2-thienyl)sulfonyl]-4-fluoro-N-[[5-fluoro-2-[2-(trifluoromethyl)pyrimidin-5-yl]-4-pyridyl]methyl]-5-methyl-pyrrolidine-2-carboxamide]",9.26
4,"C[C@H]1[C@H](F)C[C@@H](C(=O)NCc2cc(-c3cnc(C(F)(F)F)nc3)ncc2C(F)F)N1S(=O)(=O)c1ccc(F)cc1 [Example 102, (2S,4R,5S)—N-((5-(difluoromethyl)-2-(2-(trifluoromethyl)pyrimidin-5-yl)pyridin-4-yl)methyl)-4-fluoro-1-(4-fluorophenylsulfonyl)-5-methylpyrrolidine-2-carboxamide]",8.39
5,"C[C@H]1[C@H](F)C[C@@H](C(=O)NCc2cc(-c3cnc(C(F)(F)F)nc3)ncc2C(F)(F)F)N1S(=O)(=O)c1ccc(F)cc1 [Example 103, (2S,4R,5S)-4-fluoro-1-(4-fluorophenylsulfonyl)-5-methyl-N-((5-(trifluoromethyl)-2-(2-(trifluoromethyl)pyrimidin-5-yl)pyridin-4-yl)methyl)pyrrolidine-2-carboxamide]",9.11
6,"C[C@H]1[C@H](F)C[C@@H](C(=O)NCc2cc(-c3cnc(C(F)(F)F)nc3)nc(C3CC3)c2C#N)N1S(=O)(=O)c1ccc(F)cc1 [Example 104, (2S,4R,5S)—N-((3-cyano-2-cyclopropyl-6-(2-(trifluoromethyl)pyrimidin-5-yl)pyridin-4-yl)methyl)-4-fluoro-1-(4-fluorophenylsulfonyl)-5-methylpyrrolidine-2-carboxamide]",9.17
7,"C[C@H]1[C@H](F)C[C@@H](C(=O)NCc2cc(-c3cnc(C(F)(F)F)nc3)ncc2OC(F)(F)F)N1S(=O)(=O)c1ccc(F)cc1 [Example 105, (2S,4R,5S)-4-fluoro-1-(4-fluorophenyl)sulfonyl-5-methyl-N-[[5-(trifluoromethoxy)-2-[2-(trifluoromethyl)pyrimidin-5-yl]-4-pyridyl]methyl]pyrrolidine-2-carboxamide]",9.06
8,"C[C@H]1[C@H](F)C[C@@H](C(=O)NCc2cc(-c3cnc(C(F)(F)F)nc3)c(OC(F)(F)F)cn2)N1S(=O)(=O)c1ccc(F)cc1 [Example 106, (2S,4R,5S)-4-fluoro-1-(4-fluorophenyl)sulfonyl-5-methyl-N-[[5-(trifluoromethoxy)-4-[2-(trifluoromethyl)pyrimidin-5-yl]-2-pyridyl]methyl]pyrrolidine-2-carboxamide]",8.66
9,"C[C@H]1[C@H](F)C[C@@H](C(=O)NCc2cc(-c3cnc(C(F)(F)F)nc3)c(C(F)(F)F)cn2)N1S(=O)(=O)c1ccc(F)cc1 [Example 107, (2S,4R,5S)-4-fluoro-1-(4-fluorophenyl)sulfonyl-5-methyl-N-[[5-(trifluoromethyl)-4-[2-(trifluoromethyl)pyrimidin-5-yl]-2-pyridyl]methyl]pyrrolidine-2-carboxamide]",8.01

# Other lines, results leading:
row,pIC50,SMILES
1,8.70,"C[C@H]1[C@H](F)C[C@@H](C(=O)NCc2cc(-c3cnc(C(F)(F)F)nc3)nc(C(F)(F)F)n2)N1S(=O)(=O)c1ccc(F)cc1 [Example 108, (2S,4R,5S)-4-fluoro-1-(4-fluorophenyl)sulfonyl-5-methyl-N-[[2-(trifluoromethyl)-6-[2-(trifluoromethyl)pyrimidin-5-yl]pyrimidin-4-yl]methyl]pyrrolidine-2-carboxamide]"
2,7.77,"C[C@H]1[C@H](F)C[C@@H](C(=O)NCc2cnc(C(F)(F)F)c(-c3cnc(C(F)(F)F)nc3)c2)N1S(=O)(=O)c1ccc(F)cc1 [Example 109, (2S,4R,5S)-4-fluoro-1-(4-fluorophenyl)sulfonyl-5-methyl-N-[[6-(trifluoromethyl)-5-[2-(trifluoromethyl)pyrimidin-5-yl]-3-pyridyl]methyl]pyrrolidine-2-carboxamide]"
3,7.98,"C[C@H]1[C@H](F)C[C@@H](C(=O)NCc2cc(-c3cnc(C(F)(F)F)nc3)cnc2C2CC2)N1S(=O)(=O)c1ccc(F)cc1 [Example 110, (2S,4R,5S)-N-[[2-cyclopropyl-5-[2-(trifluoromethyl)pyrimidin-5-yl]-3-pyridyl]methyl]-4-fluoro-1-(4-fluorophenyl)sulfonyl-5-methyl-pyrrolidine-2-carboxamide]"
4,8.76,"C[C@H]1[C@H](F)C[C@@H](C(=O)NCc2cc(-c3cnc(C(F)(F)F)nc3)ccc2C(F)(F)F)N1S(=O)(=O)c1ccc(F)cc1 [Example 111, (2S,4R,5S)-4-fluoro-1-(4-fluorophenyl)sulfonyl-5-methyl-N-[[2-(trifluoromethyl)-5-[2-(trifluoromethyl)pyrimidin-5-yl]phenyl]methyl]pyrrolidine-2-carboxamide]"
5,8.71,"C[C@H]1[C@H](F)C[C@@H](C(=O)NCc2cc(-c3cnc(C(F)(F)F)cn3)ncc2C(F)(F)F)N1S(=O)(=O)c1ccc(F)cc1 [Example 112, (2S,4R,5 S)-4-fluoro-1-(4-fluorophenylsulfonyl)-5-methyl-N-((5-(trifluoromethyl)-2-(5-(trifluoromethyl)pyrazin-2-yl)pyridin-4-yl)methyl)pyrrolidine-2-carboxamide]"
6,8.35,"C[C@H]1[C@H](F)C[C@@H](C(=O)NCc2cc(-c3cnc(C(F)(F)F)nc3)nc(C(F)(F)F)c2)N1S(=O)(=O)c1ccc(F)cc1 [Example 113, (2S,4R,5S)-4-fluoro-1-(4-fluorophenyl)sulfonyl-5-methyl-N-[[2-(trifluoromethyl)-6-[2-(trifluoromethyl)pyrimidin-5-yl]-4-pyridyl]methyl]pyrrolidine-2-carboxamide]"
7,8.45,"C[C@H]1[C@H](F)C[C@@H](C(=O)NCc2cc(-c3ccc(OC(F)F)nc3)ncc2C(F)(F)F)N1S(=O)(=O)c1ccc(F)cc1 [Example 114, (2S,4R,5S)—N-([2-[6-(difluoromethoxy)pyridin-3-yl]-5-(trifluoromethyl)pyridin-4-yl]methyl)-4-fluoro-1-[(4-fluorobenzene)sulfonyl]-5-methylpyrrolidine-2-carboxamide]"
8,8.87,"C[C@H]1[C@H](F)C[C@@H](C(=O)NCc2cc(-c3ccc(C(F)(F)F)nc3)ncc2C(F)(F)F)N1S(=O)(=O)c1ccc(F)cc1 [Example 115, (2S,4R,5S)-4-fluoro-1-(4-fluorophenyl)sulfonyl-5-methyl-N-[[5-(trifluoromethyl)-2-[6-(trifluoromethyl)-3-pyridyl]-4-pyridyl]methyl]pyrrolidine-2-carboxamide]"
9,8.24,"C[C@H]1[C@H](F)C[C@@H](C(=O)NCc2cc(-c3cnc(C(F)(F)F)nc3)ncc2C(F)(F)F)N1S(=O)(=O)c1ccc(C#N)cc1 [Example 116, (2S,4R,5S)-1-(4-cyanophenyl)sulfonyl-4-fluoro-5-methyl-N-[[5-(trifluoromethyl)-2-[2-(trifluoromethyl)pyrimidin-5-yl]-4-pyridyl]methyl]pyrrolidine-2-carboxamide]"
10,8.96,"COc1nn(-c2cnc(C(F)(F)F)nc2)cc1CNC(=O)[C@@H]1C[C@@H](F)[C@H](C)N1S(=O)(=O)c1cc2cc(F)ccc2o1 [Example 117, (2S,4R,5S)-4-fluoro-1-(5-fluorobenzofuran-2-yl)sulfonyl-N-[[3-methoxy-1-[2-(trifluoromethyl)pyrimidin-5-yl]pyrazol-4-yl]methyl]-5-methyl-pyrrolidine-carboxamide]"
11,8.64,"C[C@H]1[C@H](F)C[C@@H](C(=O)NCc2cc(-c3cnc(C(F)(F)F)nc3)c(F)cn2)N1S(=O)(=O)c1ccc(F)c(F)c1 [Example 118, (2S,4R,5S)-1-(3,4-difluorophenyl)sulfonyl-4-fluoro-N-[[5-fluoro-4-[2-(trifluoromethyl)pyrimidin-5-yl]-2-pyridyl]methyl]-5-methyl-pyrrolidine-2-carboxamide]"
12,9.08,"C[C@H]1[C@H](F)C[C@@H](C(=O)NCc2cc(-c3cnc(C(F)(F)F)nc3)ncc2C(F)(F)F)N1S(=O)(=O)c1ccc(F)c(F)c1 [Example 119, (2S,4R,5S)-1-(3,4-difluorophenyl)sulfonyl-4-fluoro-5-methyl-N-[[5-(trifluoromethyl)-2-[2-(trifluoromethyl)pyrimidin-5-yl]-4-pyridyl]methyl]pyrrolidine-2-carboxamide]"
13,8.82,"C[C@H]1[C@H](F)C[C@@H](C(=O)NCc2cc(C(F)(F)F)nc(C3CC3)n2)N1S(=O)(=O)c1cc2cc(F)ccc2o1 [Example 120, (2S,4R,5S)-N-[[2-cyclopropyl-6-(trifluoromethyl)pyrimidin-4-yl]methyl]-4-fluoro-1-(5-fluorobenzofuran-2-yl)sulfonyl-5-methyl-pyrrolidine-2-carboxamide]"
14,8.84,"C[C@H]1[C@H](F)C[C@@H](C(=O)NCc2cc(-c3cnc(C(F)(F)F)nc3)nc(C3CC3)c2)N1S(=O)(=O)c1ccc(F)cc1 [Example 121, (2S,4R,5S) N-[[2-cyclopropyl-6-[2-(trifluoromethyl)pyrimidin-5-yl]-4-pyridyl]methyl]-4-fluoro-1-(4-fluorophenyl)sulfonyl-5-methyl-pyrrolidine-2-carboxamide]"
